Measured values taken from publication PMC10454396 (International Journal of Molecular Sciences, 2023).
Values after ≈ are worked out from the molar mass of the structure shown.

System: Staphylococcus aureus Newman WT
Assay: MIC, broth microdilution, S. aureus Newman wild type
Assay type: cell-based
Conditions: Staphylococcus aureus, NEWMAN
Procedure: Cefazolin was obtained from Acros Organics. Ciprofloxacin hydrochloride, linezolid and vancomycin hydrochloride were obtained from Sigma-Aldrich (St. Louis, MO, USA). Tetracycline hydrochloride was obtained from Alfa Aesar. Sorangicin A was provided by HZI, Braunschweig. Stock solutions were prepared in Milli-Q water or dimethyl sulfoxide (DMSO, Sigma-Aldrich). Minimum inhibitory concentrations (MICs) were determined in cation-adjusted Mueller-Hinton broth (MHB2) using the broth microdilution method as recommended by the Clinical and Laboratory Standards Institute (CLSI). The MIC was defined as the lowest concentration of the antibiotic causing complete inhibition of visible growth of the microorganism (CLSI, 2017).
1. In vitro characterization of mCherry expressing Staphylococcus aureus Newman
1.1 Minimum inhibitory concentration
Table S1. Antibiotic susceptibility profile of Staphylococcus aureus Newman. WT: wild type. […]

Structure (SMILES): C/C(=C\[C@H](C)CCCCC(=O)O)[C@@H]1O[C@@H]2C=C[C@H]1OC(=O)\C=C/C=C\C=C\[C@H]1O[C@@H]3C[C@H]1O[C@@H](/C=C/C[C@H]1O[C@H](C[C@H](O)[C@H]1C)[C@@H](O)[C@@H](O)/C=C/CC/C=C/C2)[C@@H]3C [sorangicin A]
- MIC: 0.0625 µg/mL (≈ 0.0774 µM)
